Laboratory results as given in article PMC9448382, “Fluorosulfate-containing pyrazole heterocycles as selective BuChE inhibitors: structure-activity relationship and biological evaluation for the treatment of Alzheimer’s disease” (Journal of Enzyme Inhibition and Medicinal Chemistry, 2022).
Read-outs that look alike come from different tables or passages of the source.

How the values were obtained:
in vitro = conditions: PAMPA; for Papp: pH 7.4
Text: Based on prior work[40]^,[41], a parallel artificial membrane permeation assay (PAMPA) for the blood-brain barrier (BBB) was used to determine the ability of the test chemical to penetrate into the brain. Six commercial medicines were purchased from Aladdin Reagents to validate the methodology. Energy Chemical provided the DMSO and dodecane. Avanti Polar Lipids provided the porcine brain lipid (PBL). Millipore provided the donor 96-well filter microplate with a PVDF membrane (pore size […]) and the acceptor indented 96-well microplate. Corning Inc. provided the 96-well UV plate (COSTAR). DMSO was used to dissolve commercial medications and test compounds at a concentration of 20 mg/mL. They were then diluted 200 times in a solution of PBS (pH 7.4 ± 0.1)/EtOH (70/30, v/v) to achieve a final concentration of 100 µg/mL. The donor microplate's fifilter membrane was coated with 4 µL of PBL in dodecane (20 mg/mL). The donor wells were then filled with 200 µL of diluted chemical solution and 300 µL of PBS/EtOH (70/30, v/v). To make the membrane contact with buffer solution, the donor fifilter plate was carefully positioned on top of the acceptor plate to form a “sandwich” assembly. At 25 °C, the sandwich was left undisturbed. The donor plate was carefully removed after 18 h of incubation, and the concentrations of test chemicals in the donor and acceptor wells were quantified using a UV plate spectroscopic reader (PerkinElmer VICTOR Nivo, Finland). Each sample was analysed at three wavelengths, in at least three independent experiments, in four wells.
Pe, permeability, refers to the ability of compounds to permeate the membranes through passive diffusion in the blood-brain barrier penetration assays.

BuChE from horse serum = molecular target: T1, BuChE from horse serum (Equus caballus, UniProt P81908); experiment: biochemical; format: biochemical; conditions: for inhibition at 20 µM: read-out: BuChE % inhibition at 20 µM
T1 construct: BuChE from horse serum (C4290-1KU; Sigma); purchased Sigma C4290-1KU; host or cells: horse serum
Protocol: (§1) According to Ellman's method, assays were carried out on AChE from electric eel (C3389-500UN; Sigma) and BuChE from horse serum (C4290-1KU; Sigma). On a final volume of 500 μL, the experiment was carried out in 48-well plates. EeAChE or eqBuChE, 0.036 U/mL, and 0.1 M pH 8 phosphate buffer were added to each well. At 37 °C, they were pre-incubated for 20 min at various chemical concentrations. […] Along with the enzymatic breakdown of ACh or BuCh, the DTNB creates the yellow anion 5-thio-2-nitrobenzoic acid. In a Biotek Synergy HTX Multi-Mode reader, changes in absorbance were detected at 410 nm. Inhibition curves were used to calculate the IC50 values (log inhibitor concentration vs percent of inhibition). The same conditions were used in a control experiment without the inhibitor, and the blank comprised buffer, DMSO, DTNB, and substrate.
(§2) The IC50 values were calculated by SPSS 17.0.

AChE from electric eel = molecular target: T2, AChE from electric eel (Electrophorus electricus, UniProt O42275); experiment: EeAChE inhibition assay (Ellman's method); format: biochemical; conditions: for inhibition at 20 µM: read-out: AChE % inhibition at 20 µM, 20 µM, na = no inhibitory activity at 20 µM; for IC50: mean ± SEM; for AChE % inhibition at 20 µM: na = no inhibitory activity at 20 µM
T2 construct: AChE from electric eel (C3389-500UN; Sigma); purchased Sigma C3389-500UN
Protocol: as §1, §2

male ICR mice = conditions: Aβ1–42 10 µg icv, K3 10 mg/kg po, donepezil 15 mg/kg po, Day 3 to Day 14
Text: The National Institutes of Health Guide for the Care and Use of Laboratory Animals was followed for all experiments. The Animal Care and Use Committee of Anhui Medical University adopted the Measures for the Care and Treatment of Laboratory Animals. In Anhui Medical University's animal centre, male ICR mice were employed (Hefei). […] Throughout all of the experiments, the room's ambient temperature and relative humidity (50%) remained constant. […] 8‒10 animals were used in each study group. The experimental time was from 08: 00 to 14: 00, and the mice were sacrificed by cervical dislocation shortly after the experiment ended. […] Aβ1–42 aggregation was induced by dissolving the Aβ1–42 peptide in DMSO as a stock solution of 5 mM and incubating it in saline at a final concentration of 2 mg/mL for 24 h at 37 °C.

[1] = BuChE from horse serum, 20 µM, na = no inhibitory activity at 20 µM

T1 sequence (P81908 whole entry): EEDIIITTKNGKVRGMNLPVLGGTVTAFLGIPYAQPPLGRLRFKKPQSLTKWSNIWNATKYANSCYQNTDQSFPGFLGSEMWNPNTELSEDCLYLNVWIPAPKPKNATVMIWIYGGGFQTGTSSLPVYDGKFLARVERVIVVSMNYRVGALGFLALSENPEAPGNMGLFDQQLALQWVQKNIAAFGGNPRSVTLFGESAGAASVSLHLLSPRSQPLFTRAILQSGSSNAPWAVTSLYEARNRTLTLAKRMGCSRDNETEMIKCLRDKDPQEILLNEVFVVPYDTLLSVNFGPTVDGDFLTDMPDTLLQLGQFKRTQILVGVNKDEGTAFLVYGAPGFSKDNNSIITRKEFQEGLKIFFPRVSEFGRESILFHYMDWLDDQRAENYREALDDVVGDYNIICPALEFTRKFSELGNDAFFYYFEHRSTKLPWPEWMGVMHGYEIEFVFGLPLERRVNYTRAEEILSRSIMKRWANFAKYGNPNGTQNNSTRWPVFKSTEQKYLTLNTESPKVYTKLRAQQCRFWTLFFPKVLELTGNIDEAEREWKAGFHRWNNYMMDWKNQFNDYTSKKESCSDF
T2 sequence (O42275 24-633): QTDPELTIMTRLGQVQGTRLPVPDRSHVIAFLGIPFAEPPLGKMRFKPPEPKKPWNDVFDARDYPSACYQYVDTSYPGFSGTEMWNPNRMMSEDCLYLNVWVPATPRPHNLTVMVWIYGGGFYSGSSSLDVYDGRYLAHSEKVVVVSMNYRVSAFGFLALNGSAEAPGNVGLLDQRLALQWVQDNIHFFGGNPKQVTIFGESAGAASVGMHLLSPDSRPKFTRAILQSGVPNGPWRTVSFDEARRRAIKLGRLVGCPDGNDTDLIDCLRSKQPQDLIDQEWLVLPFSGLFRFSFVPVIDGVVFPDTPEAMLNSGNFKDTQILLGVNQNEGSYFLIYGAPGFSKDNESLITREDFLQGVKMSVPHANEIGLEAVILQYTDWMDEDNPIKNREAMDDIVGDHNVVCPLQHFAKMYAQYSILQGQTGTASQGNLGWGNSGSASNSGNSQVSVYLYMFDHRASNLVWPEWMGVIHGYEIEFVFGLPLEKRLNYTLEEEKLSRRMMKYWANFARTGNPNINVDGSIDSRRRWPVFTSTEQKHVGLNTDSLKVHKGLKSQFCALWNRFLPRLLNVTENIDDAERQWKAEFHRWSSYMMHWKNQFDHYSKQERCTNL

Row | Compound | IC50 (BuChE from horse serum) [µM] | inhibition at 20 µM (AChE from electric eel) [%] | also measured
1 | Clc1cccc(Cl)c1N=C1NCCN1 [Clonidine] |  |  | BBB penetration (in vitro): CNS+; Papp (in vitro): 8.3 ×10⁻⁶ cm/s
2 | O=S(=O)(F)Oc1cc(-c2ccccc2)nn1-c1ccccc1 [Compound K1] | 2.28 ± 0.64 | 33.6 ± 1.6 | 
3 | O=S(=O)(F)Oc1cc(-c2ccccc2)nn1-c1ccc(F)cc1 [Compound K2] | 1.73 ± 0.62 | 27.5 ± 2.7 | 
4 | Cc1ccc(-n2nc(-c3ccccc3)cc2OS(=O)(=O)F)cc1 [Compound K4] | 2.35 ± 1.02 | 25.9 ± 0.9 | 
5 | Cc1ccc(-n2nc(-c3ccccc3)cc2OS(=O)(=O)F)cc1C [Compound K5] | 2.23 ± 0.31 | 24.4 ± 2.1 | 
6 | COc1ccc(-n2nc(-c3ccccc3)cc2OS(=O)(=O)F)cc1 [Compound K6] |  | 25.7 ± 1.5 | inhibition at 20 µM (BuChE from horse serum): 47.9 ± 1.9%
7 | O=S(=O)(F)Oc1cc(-c2ccccc2)nn1-c1ccccn1 [Compound K7] | 9.89 ± 0.87 |  | IC50 (AChE from electric eel): 19.39 ± 0.01 µM
8 | O=S(=O)(F)Oc1cc(-c2ccccc2)nn1C1CCCCC1 [Compound K8] | 5.84 ± 0.87 | 25.1 ± 1.2 | 
9 | CC(C)(C)n1nc(-c2ccccc2)cc1OS(=O)(=O)F [Compound K9] |  |  | BuChE % inhibition at 20 µM (BuChE from horse serum; [1]): 30.9 ± 1.5%; AChE % inhibition at 20 µM (AChE from electric eel): 10.1 ± 0.4%
10 | O=S(=O)(F)Oc1cc(-c2ccccc2)n[nH]1 [Compound K10] | 6.92 ± 1.41 | 32 ± 1.2 | 
11 | Cc1nn(-c2ccccc2)c(OS(=O)(=O)F)c1C [Compound K11] |  |  | BuChE % inhibition at 20 µM (BuChE from horse serum; [1]): 45.2 ± 1.8%; AChE % inhibition at 20 µM (AChE from electric eel): 7.2 ± 1.0%
12 | Cc1nn(-c2ccccn2)c(OS(=O)(=O)F)c1C [Compound K12] |  |  | BuChE % inhibition at 20 µM (BuChE from horse serum; [1]): 20.7 ± 1.7%; AChE % inhibition at 20 µM (AChE from electric eel): 42.8 ± 0.8%
13 | Cc1cc(OS(=O)(=O)F)n(-c2ccccc2)n1 [Compound K13] | 9.16 ± 0.53 | 37.5 ± 1.4 | 
14 | Cc1cc(OS(=O)(=O)F)n(-c2ccc(F)cc2)n1 [Compound K14] | 5.5 ± 0.09 | 48.2 ± 1 | 
15 | Cc1cc(OS(=O)(=O)F)n(-c2ccc(Cl)cc2)n1 [Compound K15] | 5.26 ± 0.39 | 45.2 ± 1.3 | 
16 | Cc1cc(OS(=O)(=O)F)n(-c2ccc(Br)cc2)n1 [Compound K16] | 7.64 ± 0.41 | 37.2 ± 0.7 | 
17 | Cc1cccc(-n2nc(C)cc2OS(=O)(=O)F)c1 [Compound K17] | 19.2 ± 0.69 | 33.4 ± 1.3 | 

Row | Compound | IC50 (BuChE from horse serum) [µM] | inhibition at 20 µM (AChE from electric eel) [%] | also measured
18 | Cc1cc(OS(=O)(=O)F)n(-c2ccc(C)c(C)c2)n1 [Compound K18] | 3.31 ± 0.7 | 8.1 ± 0.5 | 
19 | Cc1cc(OS(=O)(=O)F)n(C(C)(C)C)n1 [Compound K19] |  |  | BuChE % inhibition at 20 µM (BuChE from horse serum; [1]): no activity
20 | CC(C)c1cc(OS(=O)(=O)F)n(-c2ccccc2)n1 [Compound K20] | 11.25 ± 0.11 | 41.6 ± 0.7 | 
21 | CC(C)c1cc(OS(=O)(=O)F)n(-c2ccc(F)cc2)n1 [Compound K21] | 6.9 ± 0.42 |  | IC50 (AChE from electric eel): 7.79 ± 0.07 µM
22 | Cc1ccc(-n2nc(C(C)C)cc2OS(=O)(=O)F)cc1 [Compound K22] | 18 ± 0.34 |  | IC50 (AChE from electric eel): 2.6 ± 0.27 µM
23 | Cc1ccc(-n2nc(C(C)C)cc2OS(=O)(=O)F)cc1C [Compound K23] | 3.98 ± 0.09 | 21.4 ± 1.1 | 
24 | CCCc1cc(OS(=O)(=O)F)n(-c2ccc(Cl)cc2)n1 [Compound K24] | 4.59 ± 0.06 | 41.8 ± 0.2 | 
25 | CCCc1cc(OS(=O)(=O)F)n(-c2ccc(OC)cc2)n1 [Compound K25] | 3.47 ± 0.04 | 10.3 ± 0.6 | 
26 | O=S(=O)(F)Oc1cc(C2CC2)nn1-c1ccccc1 [Compound K26] | 14.4 ± 1.08 |  | IC50 (AChE from electric eel): 4.82 ± 0.07 µM
27 | O=C1CC(c2ccccc2)=NN1c1ccccc1 [Compound M1] |  | 8.8 ± 2.6 | 
28 | O=C1CC(c2ccccc2)=NN1c1ccc(F)cc1 [Compound M2] |  | 37 ± 3.3 | inhibition at 20 µM (BuChE from horse serum; [1]): 27.7 ± 11.7%
29 | O=C1CC(c2ccccc2)=NN1c1ccc(Cl)cc1 [Compound M3] |  | 26.9 ± 1 | inhibition at 20 µM (BuChE from horse serum; [1]): 25.4 ± 5.4%
30 | Cc1ccc(N2N=C(c3ccccc3)CC2=O)cc1C [Compound M4] |  | 10.7 ± 1.9 | inhibition at 20 µM (BuChE from horse serum; [1]): 44.1 ± 13.8%
31 | COc1cc2c(cc1OC)C(=O)C(CC1CCN(Cc3ccccc3)CC1)C2 (stereo not shown) [Donepezil, reference compound] |  |  | effect on Aβ1–42-induced cognitive dysfunction (MWM) (male ICR mice): significantly improved
32 | CN1C(C(=O)Nc2ccccn2)=C(O)c2ccccc2S1(=O)=O [Piroxicam] |  |  | Papp (in vitro): 2.23 ×10⁻⁶ cm/s
33 | CC(=O)[C@H]1CC[C@H]2[C@@H]3CCC4=CC(=O)CC[C@]4(C)[C@H]3CC[C@]12C [Progesterone] |  |  | Papp (in vitro): 8.1 ×10⁻⁶ cm/s
